The results in this text go back to patent US8193364B2, “Insecticidal N-substituted (6-haloalkylpyridin-3-yl)-alkyl sulfoximines” (Dow AgroSciences, LLC., priority 2006, dated 2012).

Read-outs that look alike come from different tables or passages of the source.

What all share (type): in vivo
The test system of assay [1] is Cotton Aphid (Aphis gossypii). As to the kind of experiment: Cotton aphid foliar spray assay on squash. To be noted: 72 h, read-out: % Control of cotton aphid on squash (foliar spray). On the procedure:
Squash with fully expanded cotyledon leaves were trimmed to one cotyledon per plant and infested with cotton aphid (wingless adult and nymph) 1 day prior to chemical application. Each plant was examined before chemical application to ensure proper infestation (ca. 30-70 aphids per plant). Compounds (2 mg) were dissolved in 2 ml of acetone:methanol (1:1) solvent, forming stock solutions of 1000 ppm. The stock solutions were then diluted with a diluent consisting 80 parts of 0.025% Tween 20 in H2O and 20 parts of acetone:methanol (1:1). A hand-held Devilbiss sprayer was used to apply the test solutions until runoff to both sides of the squash cotyledon leaves. Four plants (4 replications) were used for each concentration of each compound. Reference plants (solvent check) were sprayed with the diluent only. Treated plants were held in a holding room for 3 days at approximately 23° C. and 40% RH before the number of live aphids on each plant was recorded. Insecticidal activity was measured by Corrected % Control using Abbott's correction formula and presented in Table 1: Corrected % Control=100*(X−Y)/X • where X=No. of live aphids on solvent check plants • Y=No. of live aphids on treated plants

The subject of assay [2] is Green Peach Aphid (Myzus persicae). Briefly: Green peach aphid foliar spray assay on cabbage. The following applies: 72 h, read-out: % Control at ppm, foliar spray, green peach aphid on cabbage. On the procedure:
Cabbage seedlings grown in 3-inch pots, with 2-3 small (3-5 cm) true leaves, were used as test substrate. The seedlings were infested with 20-50 green peach aphids (wingless adult and nymph) 2-3 days prior to chemical application. Four seedlings were used for each treatment. Compounds (2 mg) were dissolved in 2 ml of acetone:methanol (1:1) solvent, forming stock solutions of 1000 ppm. The stock solutions were then diluted with a diluent consisting 80 parts of 0.025% Tween 20 in […] and 20 parts of acetone:methanol (1:1). A hand-held Devilbiss sprayer was used for spraying the test solutions to both sides of cabbage leaves until runoff. Reference plants (solvent check) were sprayed with the diluent only. Treated plants were held in a holding room for three days at approximately 23° C. and 40% RH prior to grading. Evaluation was conducted by counting the number of live aphids per plant under a microscope. Insecticidal activity was measured by using Abbott's correction formula: Corrected % Control=100*(X−Y)/X • where X=No. of live aphids on solvent check plants • Y=No. of live aphids on treated plants The Corrected % Control values from assays are given in Table 2.

Assay [3] concerns Brown Planthopper (Nilaparvata lugens). Briefly: Brown planthopper foliar spray assay on rice. On the procedure:
(§1) A foliar spray assay and a root-uptake systemic assay were performed on both brown planthopper and green leafhopper. Four-week-old rice seedlings were submerged in 3-cm depth of water in the bottom portion (high 5 cm, diameter 3 cm) of a 2-part glass cylinder (high 18 cm, diameter 3 cm). A metal screen was used to hold the seedlings within the bottom portion. Scotch tape was used to bind the two portions of the cylinder after setting up the seedlings. A metal cap was used to cover the cylinder. There were 4 cylinders for each treatment. The test compound was dissolved in acetone to make a 10,000 ppm stock solution. For the foliar spray assay, this stock solution was diluted with water to make 10, 2.5, 0.31, 0.08 and 0.02 ppm test solutions. A volume of 0.5 ml of a test solution or solvent blank as check was sprayed into the glass cylinder. For systemic test, the stock solution was incorporated at final test concentrations of 10, 2.5, 0.31, 0.08 and 0.02 ppm in the water in which rice seedlings were submerged. In both foliar spray and systemic tests, five laboratory-reared 3rd instar nymphs of brown planthopper or green leafhopper were introduced into each cylinder 3 hr after insecticide application. The treated test units were kept in a growth chamber with conditions set as followings: Temperature 28±0.5° C.; Relative humidity 70±0.5%; Photoperiod […].

Assay [4] deals with Green Leafhopper (Nephotettix sp.). As to the kind of experiment: Green leafhopper root-uptake systemic assay on rice. The method, then: as §1
Assay [5] has the same test system. As to the kind of experiment: Green leafhopper foliar spray assay on rice. The method, then: as §1
The subject of assay [6] is Brown Planthopper (Nilaparvata lugens). As to the kind of experiment: Brown planthopper root-uptake systemic assay on rice. On the procedure:
as §1

On to `N#CN=S1(=O)CCCC1Cc1ccc(C(F)(F)F)nc1` (centres unmarked) [Compound 10, 2-[(6-trifluoromethylpyridin-3-yl)methyl]-1-oxidotetrahydro-1H-1λ^4-thien-1-ylidenecyanamide], for which, in assay [1], the pest or weed control at 0.781 ppm was 60 to 69% and the pest or weed control at 3.13 ppm lay in the range of 70 to 79%.
For the compound `CS(=O)(CCc1ccc(C(F)(F)F)nc1)=NC#N` (centres unmarked) [Compound 6, [2-(6-trifluoromethylpyridin-3-yl)ethyl](methyl)-oxido-λ^4-sulfanylidenecyanamide], the pest or weed control at 0.781 ppm in assay [1] (0.781 ppm, 3 days after spray) lay in the range of 80 to 89%. Besides, the pest or weed control at 3.13 ppm in assay [1] (3.13 ppm, 3 days after spray) lay within 80 to 89%.
With `CS(=O)(Cc1ccc(C(F)F)nc1)=NC#N` (centres unmarked) [Compound 7, [(6-difluoromethylpyridin-3-yl)methyl](methyl)-oxido-λ^4-sulfanylidenecyanamide], in assay [1] (0.049 ppm, 3 days after spray), the pest or weed control at 0.049 ppm was less than 50%. Besides, in assay [1] (0.195 ppm, 3 days after spray), the pest or weed control at 0.195 ppm was in the range of 80 to 89%. Besides, the pest or weed control at 0.781 ppm in assay [1] (0.781 ppm, 3 days after spray) lay in the range of 90 to 100%. In addition, the pest or weed control at 3.13 ppm in assay [1] (3.13 ppm, 3 days after spray) lay within 90 to 100%.
In the case of `N#CN=S1(=O)CCCC1c1ccc(C(F)(F)F)nc1` (centres unmarked) [Compound 3, 2-(6-trifluoromethylpyridin-3-yl)-1-oxidotetrahydro-1H-1λ^4-thien-1-ylidenecyanamide], the pest or weed control at 0.049 ppm in assay [1] (0.049 ppm, 3 days after spray) was in the range of 90 to 100%. The pest or weed control at 0.195 ppm in assay [1] (0.195 ppm, 3 days after spray) was 90 to 100%; in assay [2] (0.195 ppm, 3 days after spray) it was less than 50%. The pest or weed control at 0.781 ppm is 90 to 100% in assay [1] (0.781 ppm, 3 days after spray) and less than 50% in assay [2] (0.781 ppm, 3 days after spray). Moreover, in assay [1] (3.13 ppm, 3 days after spray), the pest or weed control at 3.13 ppm is 90 to 100%. In assay [2] (3.125 ppm, 3 days after spray), the pest or weed control at 3.125 ppm was in the range of 60 to 69%.
Regarding `CC(c1ccc(C(F)(F)Cl)nc1)S(C)(=O)=NC#N` (centres unmarked) [Compound 4, (1-{6-[chloro(difluoro)methyl]pyridin-3-yl}ethyl)(methyl)-oxido-λ^4-sulfanylidenecyanamide], the pest or weed control at 0.049 ppm in assay [1] lay in the range of 90 to 100%. The figures for the pest or weed control at 0.195 ppm in assay [1] and in assay [2] were 90 to 100% and 80 to 89%, respectively. Besides, the pest or weed control at 0.781 ppm in assay [1] and in assay [2] was 90 to 100% in each case. In addition, the pest or weed control at 3.13 ppm in assay [1] was 90 to 100%. Besides, in assay [2], the pest or weed control at 3.125 ppm was in the range of 90 to 100%. In addition, the “% Control at ppm against brown planthopper” value in assay [3] (0.02 ppm) is “F (Less than 50)”; in assay [3] (0.08 ppm) it was “E (50-59)”; in assay [3] (0.31 ppm) it was “B (80-89)”; in assay [3] (2.5 ppm), “A (90-100)”; in assay [3] (10 ppm) it was “A (90-100)”; in assay [6] (0.02 ppm in water) it was “F (Less than 50)”. For the same compound, the “% Control at ppm against brown planthopper” value in assay [6] (0.08 ppm in water) is on record as “E (50-59)”; in assay [6] (0.31 ppm in water) it was “A (90-100)”; in assay [6] (2.5 ppm in water) it was “A (90-100)”; in assay [6] (10 ppm in water) it was “A (90-100)”. Also, the “% Control at ppm against green leafhopper” value in assay [4] (0.02 ppm in water) is “E (50-59)”; in assay [4] (0.08 ppm in water), “C (70-79)”; in assay [4] (0.31 ppm in water), “A (90-100)”; in assay [4] (2.5 ppm in water) it was “A (90-100)”; in assay [4] (10 ppm in water), “A (90-100)”; in assay [5] (0.02 ppm), “E (50-59)”. Besides, the “% Control at ppm against green leafhopper” value in assay [5] (0.08 ppm) was “B (80-89)”; in assay [5] (0.31 ppm) it was “A (90-100)”; in assay [5] (2.5 ppm), “A (90-100)”; in assay [5] (10 ppm) it was “A (90-100)”.
Regarding `CC(c1ccc(C(C)(F)F)nc1)S(C)(=O)=NC#N` (centres unmarked) [Compound 12], the pest or weed control at 0.781 ppm was 90 to 100% in assay [1] (0.781 ppm, 3 days after spray) and 50 to 59% in assay [2] (0.781 ppm, 3 days after spray). Besides, in assay [1] (3.13 ppm, 3 days after spray), the pest or weed control at 3.13 ppm was 90 to 100%. Besides, the pest or weed control at 3.125 ppm in assay [2] (3.125 ppm, 3 days after spray) was in the range of 80 to 89%.
With `CC(c1ccc(C(F)(F)C(F)(F)F)nc1)S(C)(=O)=NC#N` (centres unmarked) [Compound 9, [1-(6-pentafluoroethylpyridin-3-yl)ethyl](methyl)-oxido-λ^4-sulfanylidenecyanamide], the pest or weed control at 0.781 ppm in assay [1] (0.781 ppm, 3 days after spray) lay within 50 to 59%. The pest or weed control at 3.13 ppm in assay [1] (3.13 ppm, 3 days after spray) lay in the range of 90 to 100%.
Take `CC(c1ccc(C(F)(F)F)nc1)S(C)(=O)=N[N+](=O)[O-]` (centres unmarked) [Compound 11, 2-trifluoromethyl-5-(1-{methyl(oxido)[oxido(oxo)hydrazono]-λ^4-sulfanyl}ethyl)pyridine]: the pest or weed control at 0.049 ppm in assay [1] (0.049 ppm, 3 days after spray) is 60 to 69%. The pest or weed control at 0.195 ppm was in the range of 60 to 69% in assay [1] (0.195 ppm, 3 days after spray) and 70 to 79% in assay [2] (0.195 ppm, 3 days after spray). Besides, the pest or weed control at 0.781 ppm fell in the range of 90 to 100% in assay [1] (0.781 ppm, 3 days after spray) and 80 to 89% in assay [2] (0.781 ppm, 3 days after spray). Moreover, the pest or weed control at 3.13 ppm in assay [1] (3.13 ppm, 3 days after spray) was 90 to 100%. Further, the pest or weed control at 3.125 ppm in assay [2] (3.125 ppm, 3 days after spray) was 90 to 100%.
For the compound `CS(=O)(Cc1ccc(C(F)(F)F)nc1)=NC#N` (centres unmarked) [Compound 1, [(6-trifluoromethylpyridin-3-yl)methyl](methyl)-oxido-λ^4-sulfanylidenecyanamide], the pest or weed control at 0.049 ppm in assay [1] (0.049 ppm, 3 days after spray) was in the range of 90 to 100%. In addition, the pest or weed control at 0.195 ppm in assay [1] (0.195 ppm, 3 days after spray) lay within 90 to 100%. Besides, the pest or weed control at 0.781 ppm was 90 to 100% in assay [1] (0.781 ppm, 3 days after spray) and less than 50% in assay [2] (0.781 ppm, 3 days after spray). Also, in assay [1] (3.13 ppm, 3 days after spray), the pest or weed control at 3.13 ppm lay within 90 to 100%. For the same compound, the pest or weed control at 3.125 ppm in assay [2] (3.125 ppm, 3 days after spray) lay within 90 to 100%.
Turning to `CC(c1ccc(C(Cl)(Cl)Cl)nc1)S(C)(=O)=NC#N` (centres unmarked) [Compound 5, [1-(6-trichloromethylpyridin-3-yl)ethyl](methyl)-oxido-λ^4-sulfanylidenecyanamide], in assay [1], the pest or weed control at 0.049 ppm fell in the range of 50 to 59%, the pest or weed control at 0.195 ppm was 80 to 89%, the pest or weed control at 0.781 ppm was in the range of 90 to 100% and the pest or weed control at 3.13 ppm is 90 to 100%. In assay [2], the pest or weed control at 0.781 ppm was less than 50% and the pest or weed control at 3.125 ppm lay within 80 to 89%.
On to `CC(c1ccc(C(F)F)nc1)S(C)(=O)=NC#N` (centres unmarked) [Compound 8, [1-(6-difluoromethylpyridin-3-yl)ethyl](methyl)-oxido-λ^4-sulfanylidenecyanamide], for which the pest or weed control at 0.049 ppm in assay [1] (0.049 ppm, 3 days after spray) lay in the range of 70 to 79%. Besides, the pest or weed control at 0.195 ppm in assay [1] (0.195 ppm, 3 days after spray) is 90 to 100%; in assay [2] (0.195 ppm, 3 days after spray), less than 50%. Besides, the pest or weed control at 0.781 ppm in assay [1] (0.781 ppm, 3 days after spray) is 90 to 100%; in assay [2] (0.781 ppm, 3 days after spray), less than 50%. Moreover, the pest or weed control at 3.13 ppm in assay [1] (3.13 ppm, 3 days after spray) lay in the range of 90 to 100%. The pest or weed control at 3.125 ppm in assay [2] (3.125 ppm, 3 days after spray) was less than 50%.
